The values below come from PubChem BioAssay (NCI).

Each structure is given as a SMILES string.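 Dose response: 5 concentrations. Exposure: 48 h. Format: 96-well plates. Endpoint: linear interpolation; highest concentration if not reached. At the TGI there is no net growth.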

Test systems include OVCAR-3 ovarian; IGROV1 ovarian; ACHN renal; HCC-2998 colon; UO-31 renal; HOP-92 NSCLC; COLO 205 colon.
Holding throughout (experiment): growth of human tumour cells (NCI), 48 h

For the molecule `O=C(N/C(=C\c1ccc([N+](=O)[O-])cc1)c1nc2ccc(Cl)cc2[nH]1)c1ccccc1`, the TGI with OVCAR-3 ovarian is 52 µM; with IGROV1 ovarian, 43.8 µM; with ACHN renal, 66.8 µM; in the experiment with HCC-2998 colon it was 33.8 µM; in the experiment with UO-31 renal, 33.5 µM; in the experiment with HOP-92 NSCLC, 34.3 µM.

In the case of `CC(C(=O)c1ccccc1)C1(O)C(=O)Nc2ccccc21` (configuration not stated), the TGI with OVCAR-3 ovarian, in the experiment on IGROV1 ovarian, in the experiment with COLO 205 colon, in the experiment on ACHN renal, in the experiment on HCC-2998 colon and with UO-31 renal was above 100 µM each time. In the experiment with HOP-92 NSCLC, this molecule registered a TGI above 100 µM.

`O=S1c2ccccc2N=C(c2ccc(Cl)cc2)CC1c1cccs1` (configuration not stated): the TGI in the experiment with OVCAR-3 ovarian was 17.3 µM; in the experiment on IGROV1 ovarian, 35.7 µM; in the experiment with COLO 205 colon, 41 µM; in the experiment with ACHN renal, above 100 µM; in the experiment on HCC-2998 colon, 36.9 µM; in the experiment with UO-31 renal, 51.6 µM. In addition, the TGI in the experiment on HOP-92 NSCLC was found to be 72.5 µM.

In the case of `S=P(c1ccccc1)(c1ccccc1)C1(C2(P(=S)(c3ccccc3)c3ccccc3)CC2)CC1`, the TGI in the experiment on IGROV1 ovarian, in the experiment with COLO 205 colon, with ACHN renal, with HCC-2998 colon and with UO-31 renal was above 100 µM each time.

With `CC(Oc1ccc(OCC2CCCCC2)cc1)C(=O)O` (configuration not stated), the TGI in the experiment with OVCAR-3 ovarian, in the experiment with IGROV1 ovarian, in the experiment with ACHN renal and in the experiment with UO-31 renal was above 100 µM in each case.

In the case of `C[C@]12CC(C#N)C(=O)C(O)=C1CC[C@@H]1C2CC[C@@]2(C)C1CC[C@@H]2O` (some centres not stated), the TGI in the experiment with OVCAR-3 ovarian was above 100 µM; with IGROV1 ovarian, 63.7 µM; in the experiment on COLO 205 colon, above 100 µM; in the experiment on ACHN renal, above 100 µM; with HCC-2998 colon it was above 100 µM; in the experiment on UO-31 renal, 87.3 µM. The molecule further showed a TGI in the experiment on HOP-92 NSCLC of 76.4 µM.

As for `COc1cc2ccc(/C(C)=N/OC(C)=O)cc2cc1OC`, the TGI is above 100 µM in the experiment on OVCAR-3 ovarian; above 100 µM in the experiment on IGROV1 ovarian; above 100 µM with COLO 205 colon; above 100 µM in the experiment on ACHN renal; 99.6 µM in the experiment on UO-31 renal; above 100 µM with HOP-92 NSCLC.

As to `CCN(CC)CCOC(=O)/C(=C/c1ccc(OC)cc1)c1cc(OC)c(OC)c(OC)c1`, the TGI with OVCAR-3 ovarian was 64.3 µM; with IGROV1 ovarian, above 100 µM; in the experiment on COLO 205 colon it was 18.9 µM; with ACHN renal, above 100 µM; in the experiment with UO-31 renal, 31.9 µM; in the experiment with HOP-92 NSCLC it was 54.1 µM.

As for `c1ccc2c(c1)nnn2CNc1ccc(N2CCOCC2)cc1`, the TGI in the experiment on OVCAR-3 ovarian, with IGROV1 ovarian, in the experiment with COLO 205 colon, in the experiment on ACHN renal, in the experiment with HCC-2998 colon and in the experiment with UO-31 renal was above 100 µM each time. This molecule also displayed a TGI in the experiment on HOP-92 NSCLC above 100 µM.

In the case of `CCCC1C(=O)C(CC)Cc2c(OC)ccc(OC)c21` (configuration not stated), the TGI in the experiment with OVCAR-3 ovarian, with IGROV1 ovarian, with COLO 205 colon, in the experiment with ACHN renal, with HCC-2998 colon and with UO-31 renal was above 100 µM each time. Moreover, the TGI in the experiment on HOP-92 NSCLC was above 100 µM.

For `COc1cc2ccnc3c2c(c1OC)CC1CC(O)C(OC)CC31` (configuration not stated), the TGI with OVCAR-3 ovarian, with IGROV1 ovarian, in the experiment with COLO 205 colon, in the experiment on ACHN renal, in the experiment on HCC-2998 colon and in the experiment with UO-31 renal was above 100 µM throughout. Besides, the TGI with HOP-92 NSCLC stood at 81.2 µM.

On to `CC1Cc2c(N)nc(N3CCOCC3)nc2NC1=O` (configuration not stated), for which the TGI with OVCAR-3 ovarian, in the experiment on IGROV1 ovarian, in the experiment with COLO 205 colon, in the experiment with ACHN renal and in the experiment with UO-31 renal was above 100 µM throughout.

As for `C=CCCC(C)N(C(=O)OC(C)(C)C)S(=O)(=O)c1ccc(C)cc1` (configuration not stated), the TGI in the experiment on OVCAR-3 ovarian, in the experiment with IGROV1 ovarian, with COLO 205 colon, with ACHN renal, in the experiment with HCC-2998 colon and in the experiment on UO-31 renal was above 100 µM in each case. For the same molecule, in the experiment with HOP-92 NSCLC, the TGI was above 100 µM.

`C/C(=N\NS(=O)(=O)c1ccc(C)cc1)c1c(O)cc(C)oc1=O`: the TGI in the experiment with IGROV1 ovarian, in the experiment on ACHN renal, in the experiment on HCC-2998 colon, with UO-31 renal and in the experiment on HOP-92 NSCLC was above 100 µM throughout.

For the molecule `CCOC(=O)CNC1C(NC(C)=O)C(OC)OC2COC(c3ccccc3)OC21` (configuration not stated), the TGI in the experiment with OVCAR-3 ovarian, in the experiment on IGROV1 ovarian, with COLO 205 colon, in the experiment with ACHN renal, in the experiment with HCC-2998 colon and in the experiment with UO-31 renal was above 100 µM each time. For the same molecule, the TGI in the experiment with HOP-92 NSCLC is above 100 µM.

In the case of `CC1=C(/C=C/C2=CC(=C\C(=O)O)/CC(C3=C(C)CCCC3(C)C)C2)C(C)(C)CCC1` (configuration not stated), the TGI in the experiment with OVCAR-3 ovarian was 27.1 µM; in the experiment on IGROV1 ovarian, 26.4 µM; in the experiment on COLO 205 colon, 30.7 µM; in the experiment on ACHN renal, 22.2 µM; with UO-31 renal, 22.5 µM; with HOP-92 NSCLC, 23.7 µM.

For `CC(=O)O[C@H]1CCC2[C@@H]3CCC4Nc5c(cnn5-c5ccccc5)C[C@]4(C)C3CC[C@@]21C` (some centres not stated), the TGI was 46.2 µM in the experiment with OVCAR-3 ovarian; above 100 µM in the experiment with IGROV1 ovarian; 28.9 µM in the experiment on COLO 205 colon; 48.1 µM with ACHN renal; 25.3 µM in the experiment on HCC-2998 colon; 22.9 µM with UO-31 renal.

As to `CCCCCCCC(=O)OCC1OC(n2cc(F)c(=O)[nH]c2=O)C(NC(=O)OCc2ccccc2)C(OC(=O)CCCCCCC)C1O` (configuration not stated), the TGI in the experiment with OVCAR-3 ovarian was 47.7 µM; with IGROV1 ovarian it was above 100 µM; with COLO 205 colon, 68.3 µM; in the experiment on ACHN renal, above 100 µM; in the experiment with HCC-2998 colon, above 100 µM; in the experiment on UO-31 renal, 0.865 µM. In the experiment with HOP-92 NSCLC, this molecule had a TGI of 61.4 µM.

For the molecule `CCOC(=O)/C(C#N)=C\C=C1/C=CNC2=NCCN21`, the TGI in the experiment on OVCAR-3 ovarian, in the experiment with IGROV1 ovarian, in the experiment with COLO 205 colon, in the experiment with ACHN renal, with HCC-2998 colon and with UO-31 renal was above 100 µM in each case.

As to `CCC(O)(c1ccc(OC)cc1)C(c1ccc(OCc2ccccc2)cc1)c1ccc(OCc2ccccc2)cc1` (configuration not stated), the TGI in the experiment with OVCAR-3 ovarian, with IGROV1 ovarian, in the experiment with COLO 205 colon, in the experiment with ACHN renal, with HCC-2998 colon and with UO-31 renal was above 100 µM each time. In addition, in the experiment on HOP-92 NSCLC, the TGI was above 100 µM.

Regarding `O=C1NC(=O)C(=O)C(c2nc3ccccc3s2)C1=O`, the TGI with OVCAR-3 ovarian, in the experiment with IGROV1 ovarian, in the experiment with COLO 205 colon, in the experiment with ACHN renal, in the experiment on HCC-2998 colon and with UO-31 renal was above 100 µM in each case. In addition, the TGI in the experiment with HOP-92 NSCLC was above 100 µM.

Turning to `O=C(c1cc2c(C(F)(F)F)onc2c2ccccc12)C(F)(F)F`, the TGI in the experiment with OVCAR-3 ovarian was 13.8 µM; in the experiment on IGROV1 ovarian, above 100 µM; with COLO 205 colon, 9.11 µM; in the experiment with ACHN renal, 14 µM; in the experiment on HCC-2998 colon, 60.4 µM; in the experiment on UO-31 renal, 9.52 µM. This molecule also displayed a TGI with HOP-92 NSCLC of 4.99 µM.

For the molecule `Cc1ccc(NC(=O)CC/C(CC(=O)c2ccc(Cl)cc2)=N\NC(=O)C(=O)NN)cc1C`, the TGI in the experiment on OVCAR-3 ovarian, in the experiment on IGROV1 ovarian, in the experiment with COLO 205 colon, with ACHN renal, in the experiment on HCC-2998 colon and in the experiment with UO-31 renal was above 100 µM each time.

In the case of `N#CC(C(=O)CCC(=O)Nc1ccc(Cl)cc1)c1ccccc1Cl` (configuration not stated), the TGI in the experiment on OVCAR-3 ovarian, with IGROV1 ovarian, in the experiment on COLO 205 colon, in the experiment on ACHN renal, with UO-31 renal and in the experiment on HOP-92 NSCLC was above 100 µM throughout.

As for `CC(C)c1cccc(C(C)C)c1N=C(N)C#N`, the TGI in the experiment on OVCAR-3 ovarian is above 100 µM; with IGROV1 ovarian, above 100 µM; in the experiment with COLO 205 colon, above 59.1 µM; with ACHN renal it was above 100 µM; in the experiment with HCC-2998 colon it was above 100 µM; with UO-31 renal, above 100 µM. For the same molecule, the TGI with HOP-92 NSCLC was above 100 µM.

As to `C[Si](C)(C)/C=C\CCCN1C(=O)CCC1=O`, the TGI in the experiment on OVCAR-3 ovarian, in the experiment with IGROV1 ovarian, in the experiment with COLO 205 colon, in the experiment on ACHN renal, with HCC-2998 colon and in the experiment on UO-31 renal was above 100 µM each time. The TGI in the experiment on HOP-92 NSCLC is above 100 µM.

As to `CCN(CC)C(=O)CNC(=O)OC(C)(C)C`, the TGI with OVCAR-3 ovarian, with IGROV1 ovarian, with ACHN renal, in the experiment with HCC-2998 colon, in the experiment on UO-31 renal and in the experiment on HOP-92 NSCLC was above 100 µM in each case.

Consider `O=C(COc1ccc(Cl)cc1)N1N=C(c2ccc([N+](=O)[O-])o2)CC1(O)c1ccccc1` (configuration not stated), for which the TGI amounted to 17.2 µM in the experiment on OVCAR-3 ovarian; 42 µM in the experiment with IGROV1 ovarian; 14.8 µM in the experiment on COLO 205 colon; 16.1 µM in the experiment on HCC-2998 colon; 23.6 µM with UO-31 renal; 37.7 µM in the experiment on HOP-92 NSCLC.

Take `O=C(O)CN(c1ccccc1)S(=O)(=O)c1ccc(Cl)cc1`: the TGI in the experiment with IGROV1 ovarian, with COLO 205 colon, with ACHN renal, in the experiment on UO-31 renal and in the experiment with HOP-92 NSCLC was above 100 µM each time.
